Results from US20250320206A1, “STAT6 DEGRADERS” (Gilead Sciences, Inc., priority 2024, published 2025).

Assays:
STAT6 = target: T1, STAT6 (Homo sapiens, UniProt P42226); test: Stat6 Degrader Assay (HiBiT based, HeLa LgBiT clone 4.14); assay type: cell-based; settings: HeLa LgBiT clone 4.14 HiBiT-STAT6, 4-24 h incubation; values given for compounds with >80% Emax; geometric mean; read-out: STAT6 degradation DC50
T1 construct: These cells express endogenous STAT6; host or cells: HeLa LgBiT clone 4.14
T1 sequence (P42226 1-847): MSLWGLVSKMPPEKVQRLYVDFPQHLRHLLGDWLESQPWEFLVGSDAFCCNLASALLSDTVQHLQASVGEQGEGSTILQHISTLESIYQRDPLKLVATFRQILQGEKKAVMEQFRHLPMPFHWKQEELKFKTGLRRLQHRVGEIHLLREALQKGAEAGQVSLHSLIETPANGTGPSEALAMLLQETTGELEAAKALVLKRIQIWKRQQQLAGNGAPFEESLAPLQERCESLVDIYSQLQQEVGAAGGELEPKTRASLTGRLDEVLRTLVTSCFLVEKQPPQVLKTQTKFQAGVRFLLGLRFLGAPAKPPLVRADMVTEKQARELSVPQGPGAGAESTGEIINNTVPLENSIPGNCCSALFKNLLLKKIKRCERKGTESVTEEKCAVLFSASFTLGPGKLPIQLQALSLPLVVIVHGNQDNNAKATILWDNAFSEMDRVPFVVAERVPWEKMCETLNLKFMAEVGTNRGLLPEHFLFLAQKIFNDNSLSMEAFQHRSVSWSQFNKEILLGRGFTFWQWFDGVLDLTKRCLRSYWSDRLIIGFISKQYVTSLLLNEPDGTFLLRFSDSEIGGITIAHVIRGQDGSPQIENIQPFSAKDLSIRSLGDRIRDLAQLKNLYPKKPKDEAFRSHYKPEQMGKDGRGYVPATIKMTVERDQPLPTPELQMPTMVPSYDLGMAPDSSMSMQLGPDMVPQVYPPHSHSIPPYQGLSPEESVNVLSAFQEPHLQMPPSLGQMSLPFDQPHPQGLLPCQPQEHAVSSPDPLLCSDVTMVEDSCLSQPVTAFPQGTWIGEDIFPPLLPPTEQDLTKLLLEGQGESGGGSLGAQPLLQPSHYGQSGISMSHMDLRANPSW
Procedure, shortened: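 Luminescence from HiBiT-STAT6 complementing stably expressed LgBiT in HeLa clone 4.14 reports remaining STAT6 protein. Cells (5000/well) exposed to compound for 4-24 h at 37° C; read 0.5 h after Nano-Glo addition. 100% degradation window set with 50 μM terfenadine; percent degradation plotted against concentration.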

[1] = test system: Eotaxin-3 release in human whole blood stimulated with IL-4; test: Human Whole Blood Eotaxin-3 Assay (IL-4 stimulated eotaxin-3 release); assay type: cell-based; settings: IL-4 stimulation, 48 h, values given for compounds with >80% Emax, geometric mean
Procedure, shortened: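 Eotaxin-3 (CCL26) release measured by MSD kit in plasma supernatant after 48 h IL-4 stimulation ([…]) of human whole blood. Compounds added in triplicate 4-fold dilutions 2 h before stimulation; 0.5% DMSO final, 37° C, 5% CO2.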

SMILES | DC50 (STAT6) | EC50 [1]
CNc1ccn(-c2ccnc3c2cc([C@H](C)N2CC=C(c4c(C)cc(C(=O)N5CCC(CN6CCN(Cc7cc8c(cc7F)n([C@H]7CCC(=O)NC7=O)c(=O)n8C)CC6)CC5)cc4F)CC2)n3C)c(=O)c1 (single isomer, unassigned) [Example 3u11] | 0.5 nM | 0.2 nM
CNc1ccn(-c2ccnc3c2cc(CN2CCC(c4c(F)cc(C(=O)N5CCC(CN6CCN(Cc7ccc8c(c7)C(C)(C)C(=O)N8[C@H]7CCC(=O)NC7=O)CC6)CC5)cc4F)CC2)n3C)c(=O)c1 (single isomer, unassigned) [Example 3u17] | 6 nM | 6.3 nM
CNc1ccn(-c2ccnc3c2cc(CN2CCC(c4c(F)cc(C(=O)N5CCC(CN6CCN(Cc7ccc8c(c7)C(C)(C)C(=O)N8[C@@H]7CCC(=O)NC7=O)CC6)CC5)cc4F)CC2)n3C)c(=O)c1 (single isomer, unassigned) [Example 3u18] | 8.4 nM | 18.6 nM
CNc1cc(=O)n(-c2ccnc3c2cc(CN2CCC(c4c(F)cc(C(=O)N5CCC(CN6CCN(Cc7ccc8c(c7)n(C)c(=O)n8[C@H]7CCC(=O)NC7=O)CC6)CC5)cc4F)CC2)n3C)cc1F (single isomer, unassigned) [Example 3u27] | 2 nM | 5.7 nM
CNc1cc(=O)n(-c2ccnc3c2cc(CN2CCC(c4c(F)cc(C(=O)N5CCC(CN6CCN(Cc7ccc8c(c7)n(C)c(=O)n8[C@@H]7CCC(=O)NC7=O)CC6)CC5)cc4F)CC2)n3C)cc1F (single isomer, unassigned) [Example 3u28] | 2.9 nM | 24.3 nM
CNc1cc(=O)n(-c2ccnc3c2cc([C@H](C)N2CCC(c4ccc(C(=O)N5CCC(CN6CCN(Cc7ccc8c(c7)C7(CC7)C(=O)N8[C@H]7CCC(=O)NC7=O)C[C@@H]6C)CC5)cc4)CC2)n3C)cc1F (single isomer, unassigned) [Example 3u37] | 0.5 nM | 1.7 nM
CNc1cc(=O)n(-c2ccnc3c2cc([C@H](C)N2CCC(c4ccc(C(=O)N5CCC(CN6CCN(Cc7ccc8c(c7)C7(CC7)C(=O)N8[C@@H]7CCC(=O)NC7=O)C[C@@H]6C)CC5)cc4)CC2)n3C)cc1F (single isomer, unassigned) [Example 3u38] | 1.3 nM | 1.5 nM
CNc1ccn(-c2ccnc3c2cc(CN2CCC(c4c(F)cc(C(=O)N5CCC(CN6CCN(Cc7cc8c(cc7F)N([C@H]7CCC(=O)NC7=O)C(=O)C87CC7)CC6)CC5)cc4F)CC2)n3C)c(=O)c1 (single isomer, unassigned) [Example 3u43] | 8.5 nM | 9.1 nM
CNc1ccn(-c2ccnc3c2cc(CN2CCC(c4c(F)cc(C(=O)N5CCC(CN6CCN(Cc7cc8c(cc7F)N([C@@H]7CCC(=O)NC7=O)C(=O)C87CC7)CC6)CC5)cc4F)CC2)n3C)c(=O)c1 (single isomer, unassigned) [Example 3u44] | 10.2 nM | 10.1 nM
CNc1cc(=O)n(-c2ccnc3c2cc(CN2CCC(c4c(F)cc(C(=O)N5CCC(CN6CCN(Cc7ccc8c(c7)C(C)(C)C(=O)N8[C@H]7CCC(=O)NC7=O)C[C@@H]6C)CC5)cc4F)CC2)n3C)cc1F (single isomer, unassigned) [Example 3u49] | 1.7 nM | 12.9 nM
CNc1cc(=O)n(-c2ccnc3c2cc(CN2CCC(c4c(F)cc(C(=O)N5CCC(CN6CCN(Cc7ccc8c(c7)C(C)(C)C(=O)N8[C@@H]7CCC(=O)NC7=O)C[C@@H]6C)CC5)cc4F)CC2)n3C)cc1F (single isomer, unassigned) [Example 3u50] | 0.9 nM | 30.2 nM
CNc1cc(=O)n(-c2ccnc3c2cc(CN2CCC(c4c(F)cc(C(=O)N5CCC(CN6CCN(Cc7ccc8c(c7)C(C)(C)C(=O)N8[C@H]7CCC(=O)NC7=O)CC6)CC5)cc4F)CC2)n3C)cc1F (single isomer, unassigned) [Example 3u58] | 7.6 nM | 12.6 nM
CNc1cc(=O)n(-c2ccnc3c2cc(CN2CCC(c4c(F)cc(C(=O)N5CCC(CN6CCN(Cc7ccc8c(c7)C(C)(C)C(=O)N8[C@@H]7CCC(=O)NC7=O)CC6)CC5)cc4F)CC2)n3C)cc1F (single isomer, unassigned) [Example 3u59] | 11.4 nM | 25.8 nM

Continued, values first:

DC50 (STAT6) | EC50 [1] | SMILES
0.6 nM | 0.5 nM | CNc1ccn(-c2ccnc3c2cc([C@H](C)N2CC=C(c4c(C)cc(C(=O)N5CCC(CN6CCN(Cc7cc8c(cc7F)n([C@@H]7CCC(=O)NC7=O)c(=O)n8C)CC6)CC5)cc4F)CC2)n3C)c(=O)c1 (single isomer, unassigned) [Example 3u12]
0.6 nM | 1.2 nM | CNc1cc(=O)n(-c2ccnc3c2cc([C@H](C)N2CC=C(c4c(C)cc(C(=O)N5CCC(CN6CCN(Cc7ccc8c(c7)n(C)c(=O)n8[C@H]7CCC(=O)NC7=O)CC6)CC5)cc4F)CC2)n3C)cc1F (single isomer, unassigned) [Example 3u14]
0.8 nM | 2.2 nM | CNc1cc(=O)n(-c2ccnc3c2cc([C@H](C)N2CC=C(c4c(C)cc(C(=O)N5CCC(CN6CCN(Cc7ccc8c(c7)n(C)c(=O)n8[C@@H]7CCC(=O)NC7=O)CC6)CC5)cc4F)CC2)n3C)cc1F (single isomer, unassigned) [Example 3u15]
1.3 nM | 1 nM | Cc1cc(C(=O)N2CCC(CN3CCN(Cc4ccc5c(c4)n(C)c(=O)n5[C@@H]4CCC(=O)NC4=O)C[C@@H]3C)CC2)cc(F)c1C1=CCN(Cc2cc3c(-n4ccc5c(c4=O)CCN5)ccnc3n2C)CC1 (single isomer, unassigned) [Example 3u25]
2.2 nM | 1.6 nM | CNc1ccn(-c2ccnc3c2cc(CN2CCC(c4c(F)cc(C(=O)N5CCC(CN6CCN(Cc7ccc8c(c7)n(C)c(=O)n8[C@H]7CCC(=O)NC7=O)CC6)CC5)cc4F)CC2)n3C)c(=O)c1 (single isomer, unassigned) [Example 3u30]
2.4 nM | 2 nM | CNc1ccn(-c2ccnc3c2cc(CN2CCC(c4c(F)cc(C(=O)N5CCC(CN6CCN(Cc7ccc8c(c7)n(C)c(=O)n8[C@@H]7CCC(=O)NC7=O)CC6)CC5)cc4F)CC2)n3C)c(=O)c1 (single isomer, unassigned) [Example 3u31]
0.2 nM | 0.3 nM | CNc1ccn(-c2ccnc3c2cc([C@H](C)N2CC=C(c4c(C)cc(C(=O)N5CCC(CN6CCN(Cc7ccc8c(c7)n(C)c(=O)n8[C@H]7CCC(=O)NC7=O)C[C@@H]6C)CC5)cc4F)CC2)n3C)c(=O)c1 (single isomer, unassigned) [Example 3u33]
5.8 nM | 10.1 nM | CNc1ccn(-c2ccnc3c2cc(CN2CC=C(c4c(F)cc(C(=O)N5CCC(CN6CCN(Cc7ccc8c(c7)C(C)(C)C(=O)N8[C@H]7CCC(=O)NC7=O)C[C@@H]6C)CC5)cc4F)CC2)n3C)c(=O)c1 (single isomer, unassigned) [Example 3u46]
0.8 nM | 8 nM | CNc1ccn(-c2ccnc3c2cc(CN2CC=C(c4c(F)cc(C(=O)N5CCC(CN6CCN(Cc7ccc8c(c7)C(C)(C)C(=O)N8[C@@H]7CCC(=O)NC7=O)C[C@@H]6C)CC5)cc4F)CC2)n3C)c(=O)c1 (single isomer, unassigned) [Example 3u47]
4.3 nM | 1.1 nM | CNc1cc(=O)n(-c2ccnc3c2cc([C@H](C)N2CC=C(c4c(F)cc(C(=O)N5CCC(CN6CCN(Cc7ccc8c(c7)n(C)c(=O)n8[C@H]7CCC(=O)NC7=O)CC6)CC5)cc4F)CC2)n3C)cc1F (single isomer, unassigned) [Example 3u52]
8.7 nM | 1.1 nM | CNc1cc(=O)n(-c2ccnc3c2cc([C@H](C)N2CC=C(c4c(F)cc(C(=O)N5CCC(CN6CCN(Cc7ccc8c(c7)n(C)c(=O)n8[C@@H]7CCC(=O)NC7=O)CC6)CC5)cc4F)CC2)n3C)cc1F (single isomer, unassigned) [Example 3u53]
7.6 nM | 3.1 nM | CNc1cc(=O)n(-c2ccnc3c2cc(CN2CC=C(c4c(F)cc(C(=O)N5CCC(CN6CCN(Cc7ccc8c(c7)n(C)c(=O)n8[C@@H]7CCC(=O)NC7=O)C[C@@H]6C)CC5)cc4F)CC2)n3C)cc1F (single isomer, unassigned) [Example 3u55]
8.7 nM | 3.5 nM | CNc1cc(=O)n(-c2ccnc3c2cc(CN2CC=C(c4c(F)cc(C(=O)N5CCC(CN6CCN(Cc7ccc8c(c7)n(C)c(=O)n8[C@H]7CCC(=O)NC7=O)C[C@@H]6C)CC5)cc4F)CC2)n3C)cc1F (single isomer, unassigned) [Example 3u56]
